Results taken from US20220402932A1, “Compounds Constituting C20-Modified Salinomycin Derivatives, a Method for Obtaining the Same, a Composition Containing the Same, a Use of Said Compounds and a Method for Obtaining an Intermediate Product” (FILECLO SP. Z O.O., priority 2020, published 2022).

Legend:
[1] = tested on: cancer cell lines B16-F0, Hs294T, LoVo, LoVo/DX, MCF-7, MV-4-11; test: In vitro cytotoxicity tests (SRB / MTT) on cancer cell lines; assay type: cell-based, human and murine; settings: versus salinomycin; from Table 3 IC50 data; 72 hours incubation
Method: (§1) The solvent for further dilutions was a culture medium.
(§2) The experiments were repeated at least 3 times.
(§3) After 4 hours of incubation at 37° C., 80 μL of lysis buffer was added to each well.

[2] = tested on: MV-4-11 (human biphenotypic leukaemia); test: In vitro cytotoxicity test, MTT assay, MV-4-11; assay type: cell-based; settings: 72 hours incubation
Method: as §1, §2, §3

[3] = tested on: advanced head, neck, breast and ovarian cancer; settings: small group of patients with advanced head; cited from earlier work

| Compound | anti-proliferative effect compared to the parent compound [1] | effect against biphenotypic leukaemia cells [2] | effect on cancer progression [3] | side effects [3] |
| --- | --- | --- | --- | --- |
| CC[C@@H](C(=O)[C@@H](C)[C@@H](O)[C@H](C)[C@@H]1O[C@@H]([C@@H](CC)C(=O)[O-])CC[C@@H]1C)[C@H]1O[C@]2(C=C[C@@H](NC(=O)NCCCCl)[C@]3(CC[C@@](C)([C@H]4CC[C@](O)(CC)[C@H](C)O4)O3)O2)[C@H](C)C[C@@H]1C.[Na+] [formula (25), 3-chloropropylurea of C20-dehydroxy-C20-aminosalinomycin] | tens of times more potent | preferred effect |  |  |
| CC[C@@H](C(=O)[C@@H](C)[C@@H](O)[C@H](C)[C@@H]1O[C@@H]([C@@H](CC)C(=O)O)CC[C@@H]1C)[C@H]1O[C@]2(C=C[C@@H](NC(=O)C(C)C)[C@]3(CC[C@@](C)([C@H]4CC[C@](O)(CC)[C@H](C)O4)O3)O2)[C@H](C)C[C@@H]1C [formula (10), C20-dehydroxy-C20-aminosalinomycin N-isobutyramide] | several times more potent |  |  |  |
| CC[C@@H](C(=O)[C@@H](C)[C@@H](O)[C@H](C)[C@@H]1O[C@@H]([C@@H](CC)C(=O)O)CC[C@@H]1C)[C@H]1O[C@]2(C=C[C@@H](O)[C@]3(CC[C@@](C)([C@H]4CC[C@](O)(CC)[C@H](C)O4)O3)O2)[C@H](C)C[C@@H]1C [Salinomycin] |  |  | inhibition of cancer progression | no acute side effects |
| C#CCOC(=O)N[C@@H]1C=C[C@]2(O[C@H]([C@@H](CC)C(=O)[C@@H](C)[C@@H](O)[C@H](C)[C@@H]3O[C@@H]([C@@H](CC)C(=O)O)CC[C@@H]3C)[C@@H](C)C[C@H]2C)O[C@@]12CC[C@@](C)([C@H]1CC[C@](O)(CC)[C@H](C)O1)O2 [formula (22), C20-dehydroxy-C20-aminosalinomycin N-propargylcarbamate] | tens of times more potent |  |  |  |
| CC[C@@H](C(=O)[C@@H](C)[C@@H](O)[C@H](C)[C@@H]1O[C@@H]([C@@H](CC)C(=O)O)CC[C@@H]1C)[C@H]1O[C@]2(C=C[C@@H](NC(=O)c3ccccc3)[C@]3(CC[C@@](C)([C@H]4CC[C@](O)(CC)[C@H](C)O4)O3)O2)[C@H](C)C[C@@H]1C [formula (15), C20-dehydroxy-C20-aminosalinomycin N-benzamide] | several times more potent |  |  |  |
